According to US20240360179A1, “STAPLED PEPTIDES AND METHODS THEREOF” (FOG PHARMACEUTICALS, INC., priority 2021, published 2024):

System: COLO320DM cells
Experiment: COLO320DM proliferation assay (CellTiter-Glo)
Format: cell-based, human
Settings: absolute IC50, read-out: COLO320DM Proliferation Abs IC50
Procedure: COLO320DM proliferation assay IC50: In some embodiments, inhibition of cell proliferation by provided technologies were assessed using cell lines related to or from certain conditions, disorders or diseases. In some embodiments, cell proliferation was assessed in COLO320DM cells. In some embodiments, assessment was performed using the following procedure: On Day 1, cultured COLO320DM cells in a T75 flask were trypsinized in 3 mL of 0.250% trypsin/EDTA for 5 min and quenched with 10 mL RPMI-1640+4% HI FBS assay media. The cells were spun down at 1200 rpm for 5 min, the cell pellet collected and re-suspended at 5000 cells/mL in assay media. Using a Combi liquid handler, cells were dispensed (50 uL, 250 cells/well) into three 384 well plates. Plates were incubated at 37° C., 5% CO2 for 18-22 h. On day 2, compounds were added. A liquid handling system was used to prepare the compound dilution and dispense compound into assay plates. The compounds were serially diluted 1/2 in 90% DMSO to create a 7 point dose curve. From compound plate, 100 nL of compound were dispensed directly into wells of the assay plates to create a dose curve starting at 20 uM and ending at 313 nM. Assay plates were incubated at 37° C., 5% CO2 for 96 h. On day 6, assay plates were removed from the incubator and allowed to sit at room temperature for 30 min. Using a liquid handler, 20 uL of CellTiter Glo reagent was added to each well. The assay plates were shaken for 2 min and allowed to sit on the bench for 10-15 minutes. The assay plates were read using the CellTiter Glo protocol on a GloMax microplate reader, and the data analyzed using GraphPad Prism. Activities of various agents, including various stapled peptides in Table E2, were confirmed.
In some embodiments, an assessment was performed as follows. On day 0, cells were seeded in cell culture media (RPMI1640, 4% FBS) in a 96-well plate at desired density, typically at 1000 cells/well. On day 1, 10 mM agent stock solution (in DMSO) was first serially diluted into DMSO at 1:2 ratio, followed by diluting with cell culture media at two times of the final concentrations. Finally, agent-containing media were introduced to cell culture wells already having the same volume of cell culture media. Cells were incubated with agents for desired days before lysed for CellTiter-Glo® Luminescent Cell Viability Assay according to the manufacture instruction (Promega, G7570). Luminescent signal was obtained from a microplate reader (GloMax, Promega). Cell viability data was expressed as % relative to DMSO control wells.
Proliferation Assay. In some embodiments, various proliferation assays are utilized to characterize or assess provided technologies. In some embodiments, on day 0, cells were seeded in cell culture media in a 96-well plate at desired density, typically at 1000 cells/well. On day 1, 10 mM compound stock solution was first serially diluted into DMSO, followed by diluting with cell culture media at two times of the final concentrations. Finally, compound-containing media were introduced to cell culture wells already having the same volume of cell culture media. Cells were incubated with compounds for desired days before lysed for CTG according to the manufacture instruction (G7570, Promega). Luminescent signal was obtained from a microplate reader (GloMax, Promega).

| Compound | IC50 [µM] |
| --- | --- |
| CC(=O)N1CCC[C@]12CC=CCCCC1(CCCC=CCCCOC(=O)N3CC[C@@]4(C3)NC(=O)[C@H](CCCCNC(=O)CC[C@@H](C(=O)N[C@@H](C)C(N)=O)NC(=O)[C@H](Cc3csc5ccccc35)NC(=O)[C@H](Cc3ccsc3)NC4=O)NC(=O)[C@H](Cc3ccccc3)NC(=O)[C@H](C)NC(=O)[C@H](Cc3ccccc3)NC(=O)[C@H](Cc3cccc(C(=O)O)c3)NC(=O)[C@H](CC(=O)O)NC1=O)NC(=O)[C@H](CC(C)(C)C)NC(=O)[C@H](CC(=O)O)NC2=O (relative stereo) [I-386, Ac-PL3-Asp-Npg-B5-Asp-3COOHF-Phe-Ala-Phe-Lys*3-PyrS2-3Thi-BztA-GlnR*3-Ala-NH2] | > 20 |

Same assay, conditions: read-out: COLO320DM Proliferation Abs IC50

| Compound | IC50 [µM] |
| --- | --- |
| Ac-PL3-Asp-Npg-B5-Asp-3COOHF-Aib-Ala-Phe-Lys*3-PyrS2-[2PyzCO]2NH2F-BztA-GlnR*3-Ala-NH2 [I-1755] | > 20 |
| Ac-PL3-Asp-DipA-B5-Asp-3COOHF-CyLeu-Ala-Phe-Lys*3-PyrS2-2F3MeF-BztA-GlnR*3-Ser-NH2 [I-1772] | ≤ 10 |
| CC(=O)N1CCC[C@]12CC=CCCCC1(CCCC=CCCCOC(=O)N3CC[C@@]4(C3)NC(=O)[C@H](CCCCNC(=O)CC[C@@H](C(=O)N[C@@H](C)C(N)=O)NC(=O)[C@H](Cc3csc5ccccc35)NC(=O)[C@H](Cc3ccsc3)NC4=O)NC(=O)[C@H](Cc3ccccc3)NC(=O)[C@H](C)NC(=O)C(C)(C)NC(=O)[C@H](Cc3cccc(C(=O)O)c3)NC(=O)[C@H](CC(=O)O)NC1=O)NC(=O)[C@H](C1CCCCC1)NC(=O)[C@H](CC(=O)O)NC2=O (single isomer, unassigned) [I-253, Ac-PL3-Asp-Chg-B5-Asp-3COOHF-Aib-Ala-Phe-Lys*3-PyrS2-3Thi-BztA-GlnR*3-Ala-NH2] | ≤ 10 |
| Ac-PL3-Asp-DipA-B5-Asp-3COOHF-Val-Ala-Phe-Lys*3-PyrS2-3Thi-BztA-GlnR*3-Ala-NH2 [I-984] | ≤ 10 |
| Ac-PL3-Asp-Npg-B5-Asp-3COOHF-Aib-Ala-Phe-Lys*3-PyrS2-3Thi-BztA-GlnR*3-Leu-Ser-NH2 [I-785] | ≤ 10 |
| Ac-PL3-Asp-Npg-B5-Asp-3COOHF-Aib-Ala-Phe-Lys*3-PyrS2-[Nic]2NH2F-BztA-GlnR*3-Ala-NH2 [I-1754] | > 20 |
| Ac-PL3-Asp-DipA-B5-Asp-3COOHF-CyLeu-Ala-Phe-Lys*3-PyrS2-2F3MeF-34ClF-GlnR*3-Leu-NH2 [I-1769] | ≤ 10 |
| Ac-PL3-Asp-DipA-B5-Asp-3COOHF-Ala-Ala-Phe-Lys*3-PyrS2-3Thi-34ClF-GlnR*3-NH2 [I-1111] | ≤ 10 |
| Ac-PL3-Asp-Npg-B5-Asp-3COOHF-Aib-Ala-Phe-Lys*3-PyrS2-3Thi-BztA-GlnR*3-Ala-Ala-Val-Pro-Thr-Leu-Lys-NH2 [I-813] | ≤ 10 |
| Ac-PL3-Asp-Ile-B5-Asp-3COOHF-Ala-Ala-Phe-sCH2S*3-PyrS2-Phe-34ClF-TriAzOrn*3-NH2 [I-1869] | ≤ 10 |
| Ac-PL3-Asp-Npg-B5-Asp-3COOHF-Aib-Ala-Phe-Lys*3-PyrS2-3Thi-BztA-GlnR*3-Ala-Val-Pro-Ala-Leu-Arg-NH2 [I-816] | ≤ 10 |
| Ac-PL3-Asp-DipA-B5-Asp-3COOHF-CyLeu-Ala-Phe-Lys*3-PyrS2-2F3MeF-BztA-GlnR*3-Phe-NH2 [I-1777] | ≤ 10 |
| CCCC[C@@H]1NC(=O)[C@H](CC(=O)O)NC(=O)[C@]2(CC=CCCCC3(CCCC=CCCCOC(=O)N4CC[C@@]5(C4)NC(=O)[C@H](CCCCNC(=O)CC[C@@H](C(=O)N[C@@H](C)C(N)=O)NC(=O)[C@H](Cc4csc6ccccc46)NC(=O)[C@H](Cc4ccsc4)NC5=O)NC(=O)[C@H](Cc4ccccc4)NC(=O)[C@H](C)NC(=O)C(C)(C)NC(=O)[C@H](Cc4cccc(C(=O)O)c4)NC(=O)[C@H](CC(=O)O)NC3=O)NC1=O)CCCN2C(C)=O (relative stereo) [I-245, Ac-PL3-Asp-nLeu-B5-Asp-3COOHF-Aib-Ala-Phe-Lys*3-PyrS2-3Thi-BztA-GlnR*3-Ala-NH2] | ≤ 10 |
| Ac-PL3-Asp-Npg-B5-Asp-3COOHF-Aib-Ala-Phe-Lys*3-PyrS2-3Thi-34ClF-GlnR*3-Ala-Ala-Ala-[mPEG8]-Lys [I-1707] | ≤ 10 |
| Ac-PL3-Asp-Npg-B5-Asp-3COOHF-Aib-Ala-Phe-Lys*3-PyrS2-[3PyPrpc]2NH2F-BztA-GlnR*3-Ala-NH2 [I-1742] | 10 to 20 |
| Ac-PL3-Asp-Ile-B5-Asp-3COOHF-Ala-Ala-Phe-TriAzLys*3-PyrS2-Phe-34ClF-sAla*3-NH2 [I-1863] | ≤ 10 |
| Ac-PL3-Asp-Ile-B5-Asp-3COOHF-Aib-Ala-Phe-sAla*3-PyrS2-Phe-34ClF-TriAzLys*3-NH2 [I-1857] | 10 to 20 |
| Ac-PL3-Asp-Ile-B5-Asp-3COOHF-Ala-Ala-Phe-sCH2S*3-PyrS2-Phe-34ClF-TriAzLys*3-NH2 [I-1866] | 10 to 20 |
| Ac-PL3-Asp-Npg-B5-Asp-3COOHF-Aib-Ala-Phe-Lys*3-PyrS2-3Thi-BztA-GlnR*3-Ala-Ala-Val-Pro-Ala-Leu-Arg-NH2 [I-817] | ≤ 10 |
| CC(=O)N1CCC[C@]12CC=CCCCC1(CCCC=CCCCOC(=O)N3CC[C@@]4(C3)NC(=O)[C@H](CCCCNC(=O)CC[C@@H](C(=O)N[C@@H](C)C(N)=O)NC(=O)[C@H](Cc3csc5ccccc35)NC(=O)[C@H](Cc3ccccn3)NC4=O)NC(=O)[C@H](Cc3ccccc3)NC(=O)[C@H](C)NC(=O)C(C)(C)NC(=O)[C@H](Cc3cccc(C(=O)O)c3)NC(=O)[C@H](CC(=O)O)NC1=O)NC(=O)[C@H](CC(C)(C)C)NC(=O)[C@H](CC(=O)O)NC2=O (relative stereo) [I-299, Ac-PL3-Asp-Npg-B5-Asp-3COOHF-Aib-Ala-Phe-Lys*3-PyrS2-2PyrA-BztA-GlnR*3-Ala-NH2] | 10 to 20 |
| Ac-PL3-Asp-Chg-B5-Asp-3COOHF-CyLeu-Ala-Phe-Lys*3-PyrS2-3Thi-34ClF-GlnR*3-NH2 [I-1044] | ≤ 10 |
| Ac-PL3-Asp-DipA-B5-Asp-3COOHF-Ala-Ala-Phe-Lys*3-PyrS2-3Thi-34ClF-GlnR*3-Ala-Ala-[Oct-PEG8]-Lys-NH2-NH2 [I-1790] | ≤ 10 |
| Ac-PL3-Asp-Ile-B5-Asp-3COOHF-Aib-Ala-Phe-TriAzOrn*3-PyrS2-Phe-34ClF-sCH2S*3-NH2 [I-1860] | ≤ 10 |
| Ac-PL3-Asp-DipA-B5-Asp-3COOHF-Ala-Ala-Phe-Lys*3-PyrS2-3Thi-34ClF-GlnR*3-[mPEG37]-Lys-NH2 [I-1702] | ≤ 10 |
| Ac-PL3-Asp-Ile-B5-Asp-3COOHF-Aib-Ala-Phe-1MeK*3-PyrS2-Phe-34ClF-hGlnR*3-NH2 [I-1373] | > 20 |
| Ac-PL3-Asp-Ile-B5-Asp-3COOHF-Aib-Ala-Phe-Lys*3-PyrS2-Phe-3BrF-GlnR*3-NH2 [I-1604] | ≤ 10 |
| Ac-PL3-Asp-Npg-B5-Asp-3COOHF-Aib-Ala-Phe-Lys*3-PyrS2-3Thi-BztA-GlnR*3-Ser-NH2 [I-721] | ≤ 10 |
| Ac-PL3-Asp-Npg-B5-Asp-3COOHF-Aib-Ala-Phe-Lys*3-PyrS2-3Thi-BztA-GlnR*3-[mPEG8]Lys-NH2 [I-1182] | > 20 |
| CC(=O)N1CCC[C@]12CC=CCCCC1(CCCC=CCCCOC(=O)N3CC[C@@]4(C3)NC(=O)[C@H](CCCCNC(=O)CC[C@@H](C(=O)N[C@@H](C)C(N)=O)NC(=O)[C@H](Cc3csc5ccccc35)NC(=O)[C@H](Cc3cccnc3)NC4=O)NC(=O)[C@H](Cc3ccccc3)NC(=O)[C@H](C)NC(=O)C(C)(C)NC(=O)[C@H](Cc3cccc(C(=O)O)c3)NC(=O)[C@H](CC(=O)O)NC1=O)NC(=O)[C@H](CC(C)(C)C)NC(=O)[C@H](CC(=O)O)NC2=O (relative stereo) [I-300, Ac-PL3-Asp-Npg-B5-Asp-3COOHF-Aib-Ala-Phe-Lys*3-PyrS2-3PyrA-BztA-GlnR*3-Ala-NH2] | > 20 |
